In patent US20250032527A1, “MEDICAL USE OF N4-HYDROXY CITICOLINE COMPOUNDS” (IMMUNIC AG, priority 2021, published 2025):

How the values were obtained:
SARS-COV-2 = test: microbe, parasite or virus in culture; type: cell-based; conditions: Severe acute respiratory syndrome coronavirus 2
[1] = test system: human rhinovirus 14 (HRV-14); test: microbe, parasite or virus in culture; conditions: Rhinovirus B, HRV14, HeLa
in vitro [2] = conditions: human
in vitro [3] = conditions: human, HeLa cells
[4] = test system: influenza A (H1N1, California/07/2009); test: microbe, parasite or virus in culture; conditions: H1N1, MDCK
physchem [5] = conditions: simulated gastric fluid
physchem [6] = conditions: fassgf or other biorelevant, kinetic from dmso stock
[7] = A-B permeability (Caco-2, pH 6.5/7.4); conditions: human, A-B, Caco-2, pH 6.5/7.4, test conc. 1.0E−05M
Caco-2 = test: A-B permeability (Caco-2, pH 6.5/7.4); conditions: low solubility, high permeability
HRV-14 = HRV-14 virus titers by endpoint titration (CCID50), mono and combination; type: cell-based; conditions: for HRV-14 Virus Titers: Hela cells, virus control 6.7
SARS-COV-2 d6-YFP = test: Combinatorial drug assessment by viral replication inhibition assay (CompuSyn); type: cell-based
[8] = B-A permeability (Caco-2, pH 6.5/7.4); conditions: human, test conc. 1.0E−05M
RSV A2 = test: RSV virus titers by endpoint titration (CCID50), mono and combination; type: cell-based; conditions: for RSV Virus Titers: MA-104 cells, virus control 4.0
in vitro [9] = conditions: African green monkey, MA-104 cells
in vitro [10] = conditions: dog, MDCK cells
physchem [11] = conditions: pH 7.4
physchem [12] = conditions: pH 7.4, aqueous buffer, kinetic from dmso stock
[13] = test system: respiratory syncytial virus (RSV) A2; test: microbe, parasite or virus in culture; conditions: human respiratory syncytial virus, MA104
[14] = Caco-2, pH 6.5, Percent Recovery 1st
[15] = Caco-2, pH 6.5, Percent Recovery 2nd
[16] = Caco-2, pH 6.5, Percent Recovery Mean
[17] = Caco-2, pH 6.5, Permeability 1st
[18] = Caco-2, pH 6.5, Permeability 2nd
[19] = Caco-2, pH 6.5, Permeability Mean
[20] = Example 1 combined with a DHODH inhibitor

`C[N+](C)(C)CCOP(=O)([O-])OP(=O)([O-])OC[C@H]1O[C@@H](n2ccc(NO)nc2=O)[C@H](O)[C@@H]1O.[Na+]` [Example 1, 2-(((((((2R,3S,4R,5R)-3,4-Dihydroxy-5-(4-(hydroxyamino)-2-oxopyrimidin-1 (2H)-yl)tetrahydrofuran-2-yl)methoxy) (hydroxy)phosphoryl)oxy)oxidophosphoryl)oxy)-N,N,N-trimethylethan-1-aminium mono sodium salt] gave an EC50 (SARS-COV-2) of under 10 µM, an EC50 [1] of 4.7 µM and a CC50 (in vitro [2]) of over 100 µM. For the same molecule, the CC50 (in vitro [3]) was over 25 µM, the EC50 [4] was 4.8 µM and the solubility (physchem [5]; Solubility 1st) was under 1 µM. The solubility (physchem [5]; Solubility 2nd) was under 1 µM, the solubility (physchem [5]; Solubility Mean) was under 1 µM and the solubility (physchem [6]; Solubility 1st) was 13.9 µM. For the same molecule, the solubility (physchem [6]; Solubility 2nd) was 18.3 µM, the solubility (physchem [6]; Solubility Mean) was 16.1 µM and the recovery at 10 µM [7, 14] was 121%. It also gave a recovery at 10 µM [7, 15] of 115%, a recovery at 10 µM [7, 16] of 118% and a Papp at 10 µM [7, 17] of 36.1 ×10⁻⁶ cm/s. For the same molecule, the Papp at 10 µM [7, 18] was 30.7 ×10⁻⁶ cm/s, the Papp at 10 µM [7, 19] was 33.4 ×10⁻⁶ cm/s and the biopharmaceutics classification (Caco-2) was “Class Il”. The “HRV-14 Virus Titers” value (HRV-14; Conc. 0.0079 μM) was 6.7 CCID50/mL (Log10), the “HRV-14 Virus Titers” value (HRV-14; Conc. 0.025 μM) was 6.7 CCID50/mL (Log10) and the “HRV-14 Virus Titers” value (HRV-14; Conc. 0.079 μM) was 6.7 CCID50/mL (Log10). For the same molecule, the “HRV-14 Virus Titers” value (HRV-14; Conc. 0.25 μM) was 7.0 CCID50/mL (Log10), the “HRV-14 Virus Titers” value (HRV-14; Conc. 0.79 μM) was 6.7 CCID50/mL (Log10) and the “HRV-14 Virus Titers” value (HRV-14; Conc. 2.5 μM) was 6.0 CCID50/mL (Log10). The “HRV-14 Virus Titers” value (HRV-14; Conc. 7.9 μM) was 4.7 CCID50/mL (Log10), the “HRV-14 Virus Titers” value (HRV-14; Conc. 25 μM) was 3.5 CCID50/mL (Log10) and the “combination behavior on HRV-14” value (HRV-14; [20]) was “synergistic”. The combinatorial antiviral effect (SARS-COV-2 d6-YFP) was “synergistic”, the recovery at 10 µM [8, 14] was 91% and the recovery at 10 µM [8, 15] was 83%. It also gave a recovery at 10 µM [8, 16] of 87%, a Papp at 10 µM [8, 17] of 26.1 ×10⁻⁶ cm/s and a Papp at 10 µM [8, 18] of 21.2 ×10⁻⁶ cm/s. The Papp at 10 µM [8, 19] was 23.7 ×10⁻⁶ cm/s, the “RSV Virus Titers” value (RSV A2; Conc. 0.0079 μM) was 4.5 CCID50/mL (Log10) and the “RSV Virus Titers” value (RSV A2; Conc. 0.025 μM) was 4.0 CCID50/mL (Log10). For the same molecule, the “RSV Virus Titers” value (RSV A2; Conc. 0.079 μM) was 3.5 CCID50/mL (Log10), the “RSV Virus Titers” value (RSV A2; Conc. 0.25 μM) was 4.0 CCID50/mL (Log10) and the “RSV Virus Titers” value (RSV A2; Conc. 0.79 μM) was 4.0 CCID50/mL (Log10). The “RSV Virus Titers” value (RSV A2; Conc. 2.5 μM) was 3.5 CCID50/mL (Log10), the “RSV Virus Titers” value (RSV A2; Conc. 7.9 μM) was 3.5 CCID50/mL (Log10) and the “RSV Virus Titers” value (RSV A2; Conc. 25 μM) was 3.5 CCID50/mL (Log10). The “combination behavior on RSV” value (RSV A2; [20]) was “synergistic”, the CC50 (in vitro [9]) was 2.4 µM and the CC50 (in vitro [10]) was 25 µM. For the same molecule, the logD (physchem [11]) was 0.52, the solubility (physchem [12]; Solubility 1st) was 14.2 µM and the solubility (physchem [12]; Solubility 2nd) was 14.4 µM. For the same molecule, the solubility (physchem [12]; Solubility Mean) was 14.3 µM and the EC50 [13] was 1.1 µM.
